Data: US12599662B2, “Methods and compositions for treating cancers” (INSERM (INSTITUT NATIONAL DE LA SANTÉ ET DE LA RECHERCHE …, priority 2018, dated 2026)

Key:
[1] = system: LLC1; assay: MHC class I and II expression on LLC1 by flow cytometry; type: cell-based; conditions: for MHC class 2 expression: LLC1, dose corresponding to IC50; for increase of expression of MHC1 on the cell membrane: LLC1, dose corresponding to IC50, 48 hours, compared to untreated cells
Source text: FIG. 3: HDACi up-regulates MHC1 in Lung cancer cell lines. […] MHCI and MHCII expression was quantified by flow cytometry analysis measuring the Relative Fluorescence Intensity (RFI).
(§1) Non-small cell lung cancer (NSCLC) cell line (lewis lung carcinoma, LLC) expressing a particularly aggressive metastatic phenotype was used.

[2] = system: 4T1 cells; assay: Vaccination study with irradiated hESC + adjuvants + VPA on 4T1 mice model; type: in vivo; conditions: for Percentage of tumor reduction (% of reduction): day 26, compared to control group receiving only PBS, irradiated hESC vaccine + named adjuvant, VPA 4 mg/ml in drinking water, 4T1 in mammary fat pad
Protocol: FIG. 1: Vaccination study with hESC combined with Valproic acid (VPA), Poly(A:U), ODN 2395 or Quil-A® adjuvant on 4T1 mice model. Vaccination study with hESC combined with Valproic acid (VPA), Poly(A:U), ODN 2395 or Quil-A® adjuvant on 4T1 mice model. Blab/c mice two boosts of vaccine containing 3 different adjuvants the day of tumor challenge. Tumor growth was assessed until 26 days to follow the tumor size using calipers permitting to measure both the longitudinal (a, mm) and transverse (b, mm) diameters. Tumor volume was calculated and plotted using calculation formula 1/6Π(a+b/2)3 mm3.
The experiment was carried out as followed: Five mice per group received two boosts of vaccine 7 and 14 days with 2×10^6 irradiated hESCs cells that were mixed with 3 different adjuvants: 500 μg of TLR3, 50 μg of TLR9 agonist or 50 μg/ml of Quil-A® Saponin vaccine adjuvant. After 14 days 5×10^4 4T1 cells were injected into the mammary fat pad of the mice and Valproic acid added in the drinking water at the dose of 4 mg/ml. Five mice receiving no treatment were used as control.
Adjuvants used in the vaccine product: Three different adjuvants were tested: • 1/ A TLR3-based adjuvant: Poly(A:U) (ref #tlrl-pau, InvivoGen) Polyadenylic-polyuridylic acid (poly(A:U)) is a synthetic double stranded RNA molecule that specifically signals through TLR3. Poly(A:U) is known to induce the activation of dendritic cells and T lymphocytes, to promote antigen-specific Th1-immune responses and to boost antibody production. […]

[3] = system: LLC1; assay: MTT cell proliferation assay on LLC1; type: cell-based; conditions: Mus musculus
Protocol: as §1
The half maximal inhibitory concentration (IC50) was first determined for each HDACi using an MTT cell proliferation assay. LLC1 was treated with an increasing dose of HDCAi and proliferation was estimated measuring the absorbance after the incorporation by the cell of MMT (3-(4,5-dimethylthiazol-2-yl)-2,5-diphenyl tetrazolium bromide) substrate.

[4] = target: HDACs; conditions: cited from earlier work
[5] = system: 4T1 cells; assay: Surface marker expression on 4T1 cells by flow cytometry; type: cell-based
Protocol: (§2) FIG. 2: Valproic acid treatment increases MHC I expression in breast tumor cells. Variation in MHC I expression during VPA treatment at 2 mM on 4T1 adherent cells and on 4T1-derived mammospheres.
(§3) 4T1 cells are a triple negative breast cancer cell line that was incubated with increased doses (0.2 and 2 mM) of valproic acid (VPA). After 4 days of treatment, the MHC I surface marker was quantified by flow cytometry analysis.

[6] = system: mammosphere-derived 4T1 cells; assay: MHC I expression on 4T1-derived mammospheres by flow cytometry; type: cell-based; conditions: 2 mM VPA
Protocol: as §2, §3

[7] = system: 4T1 cells; assay: Transcriptome analysis of VPA-treated 4T1 cells; type: cell-based; conditions: 0.5 mM VPA for 10 days versus non-VPA treated cells
Protocol: To determine the effect of VPA on 4T1 cells, a transcriptome analysis on cells treated with 0.5 mM of VPA for 10 days was performed and compared with that of non-VPA treated cells. These analyses allowed for the identification of the set of genes implicated in TNF-α signaling and in the response of IFN-α and IFN-γ. In addition, the use of the SAM algorithm allowed for the discrimination of 44 immune-related genes between the VPA-treated samples and their control counterparts, which were validated by principal component analysis (p-value=3.3×10^−4). […] These three molecules are known to contribute to the clonal expansion, survival, and development of T cells and regulate CD28 co-stimulation to promote Th1 cell responses. Consequently, this HDACi improves the immune response against the cancer cells.

| Compound | MHC class 2 expression [1] | increase of expression of MHC1 on the cell membrane [1] [fold] | Percentage of tumor reduction (% of reduction) [2] [%] | IC50 [3] [µM] | further results |
| --- | --- | --- | --- | --- | --- |
| O=C(CCCCCCC(=O)Nc1ccccc1)NO [Vorinostat, N-Hydroxy-N′-phenyloctanediamide] | not modulated | 2 |  |  |  |
| Polyadenylic-polyuridylic acid [Poly(A:U)] |  |  | 54 |  | reduction of breast tumor volume ([2]; hESC vaccine + adjuvant, versus TLR9 agonist or Quil-A, p<0.001): highest reduction of breast tumor volume |
| Nc1ccccc1NC(=O)c1ccc(CNC(=O)OCc2cccnc2)cc1 [Entinostat] | not modulated | 2 |  | 2 to 4 |  |
| 2-pyrrolidinone-n-butyric acid [PBA] |  |  |  |  | Ki ([4]; major carboxylic acid metabolite of levetiracetam in humans, read-out: Ki for HDAC inhibition): 2.25 mM |
| CC[C@@H](C(N)=O)N1CCCC1=O [Levetiracetam] | not modulated | 2 |  | 2 to 4 | direct effect on HDACs [4]: no direct effect on HDACs |
| CCCC(CCC)C(=O)O [VPA, acid-2-propylpentanoic] | not modulated | 2 | 24 | ~2000 | MHC I levels ([5]; 0.2 and 2 mM, 4 days of treatment): increasing MHC I levels in a dose-dependent manner; increase in PDL1 expression ([5]; 4T1 cells, 2 mM VPA): 2.1 fold; increase of MHC I expression (Relative Fluorescence Intensity) ([5]; 4T1 cells, 2 mM VPA): 2.1 fold; PDL2 expression ([5]; 4T1 cells, after VPA treatment): only weakly upregulated; increase of MHC I expression (Relative Fluorescence Intensity) [6]: 2.7 fold; MHC1 overexpression versus non-treated LLC1 cells ([1]; LLC1, FIG. 3A): 10 folds; fold change of CD74, CCL2 and TNFRSF9 expression [7]: greater than 2 |
